Experimental findings from a melting point compilation (Tetko et al.; mined from patent text by program, amines drawn as free bases though some values may be those of a salt) are described below.

`CCOC(=O)c1ccc(N=C(Nc2ccc(C(=O)OCC)cc2)c2ccc(Cl)cc2)cc1` gave a melting point of 171 to 172 °C.

`COc1ccc(CCNc2nc(C)c(CCO)c(=O)n2C)cc1` showed a melting point of 210 °C.

Consider `COc1nc(C)nc(NC(=O)NS(=O)(=O)c2cccc3c2C(Cl)=CC3)n1`, for which the melting point lay in the range of 168 to 170 °C.

Compound `Nc1c(Cl)cc(Cl)c(-c2nsc(C(F)(F)F)c2Cl)c1Br` yielded a melting point of 77 to 78 °C.

`CCOC(=O)c1c2n(c3c(Cl)c(F)c(F)cc3c1=O)C(C)S2` (stereo not drawn): the melting point lay in the range of 191 to 194 °C.

`CC1(C)OCCC(=NO)c2ccccc2NC1=O` showed a melting point of 205 to 206 °C.

For `Cc1cc(NCC(C)C)c([N+](=O)[O-])c2nnnn12`, the melting point is 185 to 187 °C.

The compound `COC(=O)CCC(=O)OCC(C)(C)Oc1ccc2c(c1)CCc1c-2ccc2c1CCC2(C)C` showed a melting point of 58 to 60 °C.

`O=C(c1ccc2nonc2c1)N1C2CCC1COC2` returned a melting point of 139 to 140 °C.

Take `N#CCc1cc(F)c(OCc2ccccc2)c(OCc2ccccc2)c1`: the melting point was 120 to 121 °C.

Take `O=C1OC(=O)C(c2ccc(C(=O)O)cc2)=C1c1ccccc1`: the melting point lay in the range of 247 to 249 °C.

`CCc1c(CC(=O)NCCCCCCNC(=O)Cc2ccc(OC)c(OC)c2CC)ccc(OC)c1OC` came in with a melting point of 169 to 172 °C.

Consider `CCOC(=O)CNC(=O)CCCOc1ccc2nc3[nH]c(=O)[nH]c3cc2c1`, for which the melting point is 274 to 276 °C.

In turn, `CS(=O)(=O)Nc1ccc(C(=O)c2[nH]c3cc(Cl)ccc3c2CC(=O)O)cc1` displayed a melting point of 207 to 210 °C.

With `CCOC(=O)C(C(=O)N(C)C)=C(OCc1ccccc1)c1ccc(Cl)cc1Cl`, the melting point turned out to be 115 °C.

On to `CCN1CC(C#CC2CC2)(C(F)(F)F)c2cc(Cl)ccc2NC1=O` (stereo not drawn), for which the melting point lay within 186 to 188 °C.

Take `Cc1oc(-c2cccs2)nc1COc1ccc(Cn2cc(CCC(=O)O)c(-c3ccccc3)c2)cc1`: the melting point was 117 to 118 °C.

Consider `COc1ccc(Cl)cc1C(=O)NCCc1ccc(CCCCCCCCCC(=O)O)cc1`, for which the melting point lay within 97 to 100 °C.

The compound `CCOC(=O)N1CCN(CCNc2ncnc3c2sc2nc(-c4ccco4)c4c(c23)CC(C)(C)CC4)CC1` had a melting point of 99.1 to 101 °C.

Compound `OC(c1ccccc1)c1cc2ccnc(N(Cc3ccccc3)Cc3ccccc3)c2[nH]1` (stereo not drawn) showed a melting point of 53 to 61 °C.

Consider `COC(=O)c1cc(Cl)c(N=C2NCCN2)c(Cl)c1`, for which the melting point fell in the range of 229 to 231 °C.

Compound `CC(=O)SC(CC(=O)N[C@@H](Cc1ccccc1)C(=O)O)C(=O)c1ccccc1` (stereo partly drawn) gave a melting point of 110 to 112 °C.

On to `Cc1cc(C(=O)NCO)ncc1C(c1c(F)ccc(F)c1F)S(=O)(=O)c1ccc(OC(F)(F)F)cc1` (stereo not drawn), for which the melting point lay within 140 to 141 °C.

Regarding `C[C@H](N)Cn1ncc2ccc(C(N)=O)cc21`, the melting point lay within 170 to 172 °C.

In the case of `CCOC(=S)c1ccc(C)c(-c2cc(C)no2)c1C`, the melting point was in the range of 72 to 74 °C.

As to `CCOC(=O)c1cn(Cc2ccccc2)c2c(OC)c(F)c(F)c(N)c2c1=O`, the melting point is 134 to 135 °C.

`CC(C)(C)C(NC(=O)CCc1ccccc1)Nc1c(Nc2cccnc2)c(=O)c1=O` (stereo not drawn) registered a melting point of 219 to 220 °C.

For `CC(=N)NS(=O)(=O)c1cc(I)cc(C#N)c1`, the melting point fell in the range of 177 to 178 °C.

As for `CCCCCCCCCCCCCCOc1ccc(CNc2cccc(CO)c2)cc1`, the melting point lay within 72 to 75 °C.

The compound `O=C(Cc1ccc(O)cc1)NC1CCN(Cc2ccc(Cl)c(Cl)c2)CC1` gave a melting point of 72 to 97 °C.

`Cc1cc(C)cc(CCCn2c(=O)c3c(Cl)cc(Cl)cc3n(Cc3ccccc3)c2=O)c1` had a melting point of 144 to 147 °C.

`O=C1SC(=Cc2cccs2)C(=O)N1CCCCSc1cccc2nccn12` gave a melting point of 116 to 117 °C.

In the case of `CN(C)c1nccc(N2CCN(C=O)CC2)n1`, the melting point came to 116 °C.

Regarding `NC(=O)c1c(Cl)c(-c2ccccc2)n2c1CN(S(=O)(=O)c1ccc(Cl)cc1)CC2`, the melting point was in the range of 123 to 125 °C.

As for `O=C(CO)c1ccc(Cl)c(Cl)c1`, the melting point fell in the range of 115 to 118 °C.

As to `COc1ccc2c(c1[N+](=O)[O-])CN(C(=O)C(F)(F)F)CC(=O)N2C`, the melting point is 71 to 74 °C.

The compound `C[Si](C)(C)C#Cc1cnn(-c2ccnc3cc(Cl)ccc23)c1` displayed a melting point of 106 to 112 °C.

For `COc1ccc2cc(C(=O)C(C)Br)ccc2c1Br` (stereo not drawn), the melting point lay within 166 to 167 °C.

`O=C1CCC(N2C(=O)c3cccc(NCc4ccco4)c3C2=O)C(=O)N1` (stereo not drawn) returned a melting point of 171 to 173 °C.

`CCCCCCCCCCCCCCC(OC)C(=O)OC` (stereo not drawn): the melting point lay in the range of 28.6 to 30.6 °C.

Take `COc1c(C)cnc(CO)c1C`: the melting point was 49 to 51 °C.

On to `CCN(CC)c1ccc2c(C)c(C#Cc3ccccc3)c(=O)oc2c1`, for which the melting point was in the range of 142 to 144 °C.

For `CC1(C)CC(=O)N(CCCCN2CCN(c3nc(C(C)(C)C)cs3)CC2)C(=O)C1`, the melting point fell in the range of 93 to 94 °C.

For the compound `Cc1nc2c(OCc3c(Cl)ccc(S(=O)(=O)N4CCC[C@H]4C(=O)NCc4ccc(C=NN)cc4)c3Cl)cccn2c1Br`, the melting point turned out to be 124 °C.

The compound `O=C(OCc1ccccc1)c1cc(Br)c(OCc2ccccc2)cc1OCc1ccccc1` showed a melting point of 74 to 76 °C.

On to `Cc1nn(-c2cc(OS(C)(=O)=O)c(Cl)cc2F)c(C)c1C`, for which the melting point was in the range of 123 to 125 °C.

On to `CCOC(=O)Cc1ccc(-c2cn3ccccc3n2)cc1`, for which the melting point was 92 to 93 °C.

Take `COC1Cn2ccc(=O)c(OCc3ccccc3)c2C(c2ccccc2)O1` (stereo not drawn): the melting point fell in the range of 202 to 204 °C.

Compound `Cc1ccc(S(=O)(=O)N2CC2)cc1` returned a melting point of 51 to 52 °C.

The compound `CS(=O)(=O)c1ccc(-n2nc(C(F)(F)F)cc2-c2ccc(-c3ccoc3)cc2)cc1F` yielded a melting point of 74 to 76 °C.

`Nc1cccc(CN/C=C2\C(=O)NC(=O)c3ccc(Br)cc32)c1` showed a melting point of 214 to 215 °C.

The compound `CN(C)CCNc1ncc(-c2ccccc2)c(C(=O)N(C)Cc2cc(C(F)(F)F)cc(C(F)(F)F)c2)n1` registered a melting point of 108 to 110 °C.

For `Cc1ccc(S(=O)(=O)N2[C@@H](CCl)CC[C@H]2c2ccc(F)cc2)cc1` (racemic), the melting point came out at 130 °C.

For `COC[C@H](C)Oc1cc(O)cc(C(=O)O)c1`, the melting point came out at 95 °C.

The compound `CC1(c2ccc(S(=O)(=O)Cl)cc2)Cc2cc(OCC(=O)O)c(Cl)c(Cl)c2C1=O` (stereo not drawn) displayed a melting point of 209 to 210 °C.

The compound `C#CC(=O)NC[C@@H]1CN2C(=O)C[C@H]2O1` (racemic) returned a melting point of 76.5 to 78 °C.

As for `CCOC(=O)Cc1nc(-c2ccc(F)cc2)oc1-c1cccs1`, the melting point fell in the range of 116 to 117 °C.

For the compound `COC(=O)CCC1CCCCCCCCCCC1=O` (stereo not drawn), the melting point was in the range of 33 to 35 °C.

In the case of `O=c1cc(-c2ccccc2)cc(-c2ccccc2)[nH]1`, the melting point was in the range of 209 to 212 °C.

Compound `Cc1ccc(C2=NCCN2C(=O)Nc2ccccc2)cc1C` displayed a melting point of 139 to 142 °C.

Regarding `O=C(O)Cc1cccc(OCCCNCC(c2ccccc2)c2ccccc2)c1`, the melting point stood at 49.1 °C.

`CC1=C(c2ccccc2)C(=O)N(C(C)(C)C(=O)c2cc(F)cc(F)c2)CO1` returned a melting point of 157 to 158 °C.

Regarding `O=C1NC(=S)SC1=Cc1ccc2c(c1)N(CCc1ccc(F)c(F)c1)C(=O)CO2`, the melting point was in the range of 263 to 266 °C.

Compound `CCOC(=O)Cc1nc(-c2ccc(Cl)c(Cl)c2)oc1-c1ccoc1` registered a melting point of 130 to 131 °C.

Take `Cc1cccc(C(=O)C=C2CCCN2C)c1`: the melting point lay within 60 to 62 °C.

The compound `CC(C)(C)S(=O)(=O)N[C@H]1CC[C@H](C(=O)O)CC1` came in with a melting point of 201 to 203 °C.

`O=[N+]([O-])c1cc(Br)cc(F)c1O` showed a melting point of 62 °C.

`Cn1nc(-c2cnc3[nH]cc(C(=O)NCC4CC4)c3n2)c2ccc(F)cc21` registered a melting point of 319 to 322 °C.

In the case of `CON=C(Nc1nc(C)cc(C)n1)NS(=O)(=O)c1ccccc1-c1ccccc1`, the melting point lay within 190 to 192 °C.

Compound `O=C(O)[C@H](Cc1ccc([N+](=O)[O-])cc1)NC1=CC(=O)C12CCCCC2` displayed a melting point of 120 °C.

`Nc1c(F)c(N2CCNCC2)cc2c1c(=O)c(C(=O)O)cn2C1CC1` came in with a melting point of 214 to 216 °C.

Compound `C=CCOC(=O)NCC(=N)NO` returned a melting point of 91 to 92 °C.

`Cc1nc2c(OCc3c(Cl)ccc(S(=O)(=O)N4CCC[C@H]4C(=O)NCCCNC(=O)c4ccc(C=NN)cc4)c3Cl)cccn2c1Br` registered a melting point of 170 °C.

In turn, `Cc1c(NC(=O)c2ccc(-c3ccc(F)cc3)cc2)ccc2cc(CN3CCCC3)cnc12` returned a melting point of 220 to 222 °C.

As to `Cc1cc([N+](=O)[O-])c2c(c1Cl)CC(C)O2` (stereo not drawn), the melting point lay in the range of 114 to 116 °C.

As for `CC(=O)C(C)(C)c1nsc2ccc(-n3c(=O)cc(C(F)(F)F)n(C)c3=O)cc12`, the melting point fell in the range of 195 to 196 °C.

For the compound `CC(=O)NC[C@H]1CN(c2ccc(C3CCNCC3)cc2)C(=O)O1`, the melting point fell in the range of 146 to 148 °C.

Compound `COC(=O)c1ccc2c(c1)C(C(=O)O)c1ccccc1CO2` (stereo not drawn) registered a melting point of 223 to 224 °C.

As to `CC(=O)OCC(C)C1=CCC2C3CC=C4CC(OC(C)=O)CC(OC(C)=O)C4(C)C3CCC12C` (stereo not drawn), the melting point lay within 116 to 118 °C.

As for `CCCNC(=O)c1ccc(-c2ccc3nnn(Cc4ccc5ncccc5c4)c3n2)cc1Cl`, the melting point lay in the range of 128 to 130 °C.

The compound `COc1ccc(N2CCN(C[C@@H](O)COc3cccc(-c4noc5ccsc45)c3)CC2)cc1` gave a melting point of 110 to 113 °C.

For `CN(C)Cc1cc(NC(=O)OC(C)(C)C)c(N)cc1-c1ccc(F)cc1`, the melting point was in the range of 97 to 125 °C.

Take `c1ccc(Nc2nnn[nH]2)cc1`: the melting point is 208 to 209 °C.

Compound `O=C1CN2CCCCC2=NN1c1ccc(Cl)cc1Cl` had a melting point of 115 to 117 °C.

In the case of `O=C1Cc2cc([N+](=O)[O-])ccc2Sc2cc(Br)ccc21`, the melting point is 242 to 245 °C.

`Cc1nc2ccccc2c(=O)n1CCN1CCC(Nc2nc3ccccc3n2Cc2ccc(F)cc2)CC1` yielded a melting point of 186 °C.

Compound `COc1cccc(CNC(=O)c2nc3scc(COc4ccc(CC(=O)O)cc4)c3c(=O)[nH]2)c1` showed a melting point of 228 to 230 °C.

As to `FC(F)(F)c1ccc(/C=C/C2=CCN(Cc3c[nH]c4ncccc34)CC2)cc1`, the melting point was 203 to 205 °C.

What is called melting point is the temperature of the solid-liquid transition.
